In PubChem BioAssay (NCI) one finds TGI data, which are given here for 15 molecules.

Experiment in all cases: NCI tumour cell line growth inhibition, 48 h
Assay [1] concerns SN12C renal.
For assay [2], the system named is SF-295 CNS.
In assay [3] the test system is KM12 colon.
Assay [4] has as its system UACC-257 melanoma.
Assay [5] deals with MCF7 breast.
Assay [6] relates to RPMI-8226 leukemia.
Assay [7] deals with UACC-62 melanoma.
Assay [8] has as its system NCI-H460 lung.
In assay [9] the test system is SNB-19 CNS.
Assay [10] deals with T-47D breast.

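In this assay, cells in 96-well plates receive the compound at five concentrations for 48 hours. Endpoints are linearly interpolated between the surrounding concentrations. At the TGI there is no net growth.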

Turning to `CC(=O)Oc1cc(-c2oc3cc(OC(C)=O)c(C4OC(CO)C(O)C(O)C4O)c(OC(C)=O)c3c(=O)c2O)c(OC(C)=O)cc1O` (stereo not given), the TGI in assay [1], in assay [2], in assay [3], in assay [4], in [5] and in assay [6] was > 100 µM in each case. For the same molecule, the TGI in assay [7] and in [8] was > 100 µM in each case.

As for `COC(=O)C1=CCC2c3[nH]c4ccccc4c3CCN2C1` (stereo not given), the TGI in assay [1], in [2], in assay [3], in [9], in [4] and in assay [6] was > 354 µM throughout. The TGI in assay [7] and in assay [8] was > 354 µM throughout.

On to `CC(C)c1c(O[Si](C(C)C)(C(C)C)C(C)C)cc2c(c1O)CC[C@H]1C(C)(C)CCC[C@]21C`, for which the TGI in assay [1], in [2], in assay [3], in assay [9], in assay [4] and in [5] was > 100 µM in each case. Besides, the TGI in assay [6], in [7] and in assay [8] was > 100 µM in each case.

`CN(/N=C/C=N/N(C)C1=NCCN1)C1=NCCN1`: the TGI in [1], in [10], in [2], in assay [3], in [9] and in assay [4] was > 100 µM throughout. Moreover, the TGI in [5], in [7] and in [8] was > 100 µM in each case.

On to `O=C(CCCn1ccnc1[N+](=O)[O-])NCCn1cnc([N+](=O)[O-])n1`, for which the TGI in [1], in assay [10], in assay [2], in [3], in [4] and in assay [5] was > 100 µM in each case. The TGI in [6], in assay [7] and in [8] was > 100 µM in each case.

In the case of `CC(C)=CCc1cc(/C=C/C(=O)O)cc(CC=C(C)C)c1O`, the TGI in [1], in [2], in [3], in assay [9], in [4] and in assay [5] was > 100 µM in each case. The TGI in assay [6], in assay [7] and in assay [8] was > 100 µM in each case.

For `COc1ccc(Nc2cc(=O)[nH]c(=O)[nH]2)cc1`, the TGI in assay [1], in assay [2], in assay [3], in assay [9], in [4] and in assay [5] was > 100 µM each time. In addition, the TGI in assay [6] and in assay [8] was > 100 µM throughout.

As for `CC(C)C(CCOS(=O)(=O)O)CCC(C)[C@H]1[C@@H](O)C(O)C2[C@]3(O)C[C@@H](O)C4(O)C[C@@H](O)CC[C@]4(C)C3CC[C@@]21C` (stereo not given in full), the TGI in assay [1], in [2], in assay [3], in [9], in assay [6] and in [7] was > 100 µM each time. Moreover, in assay [8], the TGI was > 100 µM.

Take `O=C(OCC(OC(=O)c1ccccc1)C1CC(C2(O)CCCCC2)C(=O)O1)c1ccccc1` (stereo not given): the TGI in assay [1], in assay [2], in assay [3], in assay [9], in [4] and in [5] was > 25 µM in each case. Also, the TGI in assay [6] is > 25 µM; in [7] it was 2.21 µM; in assay [8], > 25 µM.

Consider `CC#CC#C/C=C1\C=CC2(OC=CC2O)O1` (stereo not given), for which the TGI was > 23.3 µM in assay [1]; > 23.3 µM in assay [2]; 7.3 µM in [3]; > 23.3 µM in assay [9]; > 23.3 µM in assay [4]; > 23.3 µM in [6]. Also, the TGI in assay [7] and in [8] was > 23.3 µM in each case.

As to `O=c1c2cc([N+](=O)[O-])ccc2n2n1CCCCC2`, the TGI in [1], in assay [2], in assay [3], in assay [9], in assay [4] and in assay [6] was > 100 µM in each case. Further, the TGI in [7] and in [8] was > 100 µM in each case.

With `CSC1=Nc2ccccc2N=C(c2ccccc2)C1`, the TGI in assay [1], in [2], in assay [3], in [9], in assay [4] and in [7] was > 100 µM in each case. Moreover, in assay [8], the TGI was found to be 46.8 µM.

As for `CC1(C)N([O-])[N+](=O)C1(C)O` (stereo not given), the TGI in assay [1], in assay [10], in assay [3], in assay [9], in assay [4] and in [5] was > 100 µM in each case. Moreover, the TGI in assay [6], in [7] and in [8] was > 100 µM each time.

In the case of `C/C(CCN(C)C)=N\OC(=O)c1ccccc1`, the TGI in [1], in [2], in assay [3], in assay [9], in assay [4] and in [6] was > 100 µM each time. The TGI in assay [7] and in assay [8] was > 100 µM in each case.

For `Cc1ccc(S(=O)(=O)Nn2c(S)c(C#N)c(-c3ccc(Cl)cc3)c(C#N)c2=O)cc1`, the TGI is 69.7 µM in assay [1]; > 100 µM in [2]; 88.4 µM in assay [3]; > 100 µM in assay [9]; > 100 µM in assay [4]; > 100 µM in assay [5]. In addition, the TGI in [6] is 88.8 µM; in assay [7], > 100 µM; in [8] it was 31.4 µM.
